Source: patent publication US6177253A, “Screening methods for the identification of anti-HIV compounds employing a cyclosporine-specific monoclonal antibody that cross-reacts with HIV-1 p24” (priority 1998, dated 2001)

What was measured:
Format in all cases: binding, BALB/c mice
G7 1.1 = test: ELISA inhibition by singly modified Cs-derivatives, McAb G7 1.1; details: group I; McAb binds selectively to Thr^2 -Cs-BSA coating
Method: (§1) A second ELISA Procedure used conjugates of D-Lys^8 -Cs-BSA and Thr^2 -Cs-BSA for coating (Queeniaux et al., 1987b). An indirect detection system consisting of rabbit anti-mouse Ig followed by alkaline phosphates-conjugated goat anti-rabbit IgG was performed as previously described (Queenlaux et al., 1987b).
(§2) The binding of the 22 McAbs to these two Cs-BSA conjugates was also found to correlate well with their fine specificity patterns, as characterized with a set of 28-36 Cs derivatives. Typical ELISA curves showing McAb binding either to D-Lys^8 -Cs-BSA (panel A) or to Thr^2 -Ca-BSA (panel B) and inhibited by Cs or Cs derivatives are shown in FIGS. 8A-8B, D-Lys^8 -Cs-BSA was subsequently used for coating in the inhibition experiments, except for those McAbs binding selectively to Thr^2 -Cs-BSA (see Table 4 and FIGS. 7A-7C). An example of the binding of 26 Cs derivatives by McAbs belonging to each of the five specificity groups mentioned above is reported in Table 5. The results are expressed as the difference of IC50 (in log10) between the Cs derivatives and Cs. All Cs-derivatives used in this study were selected for having a conserved peptide ring conformation compared with CsA (as determined in NMR or X-ray diffraction).

H4 1.3 = test: ELISA inhibition by singly modified Cs-derivatives, McAb H4 1.3; details: group II; D-Lys^8 -Cs-BSA coating
Method: as §1, §2

H6 1.5 = test: ELISA inhibition by singly modified Cs-derivatives, McAb H6 1.5; details: group III; D-Lys^8 -Cs-BSA coating
Method: as §1, §2

B11 1.4 = test: ELISA inhibition by singly modified Cs-derivatives, McAb B11 1.4; details: group IV; D-Lys^8 -Cs-BSA coating
Method: as §1, §2

C4 2.2 = test: ELISA inhibition by singly modified Cs-derivatives, McAb C4 2.2; details: group V; McAb binds selectively to Thr^2 -Cs-BSA coating
Method: as §1, §2

Compound | log10 difference in the concentrations of Cs-derivatives and unmodified Cs required to achieve 50% inhibition in ELISA, McAb G7 1.1 (G7 1.1) | log10 difference in the concentrations of Cs-derivatives and unmodified Cs required to achieve 50% inhibition in ELISA, McAb H4 1.3 (H4 1.3) | log10 difference in the concentrations of Cs-derivatives and unmodified Cs required to achieve 50% inhibition in ELISA, McAb H6 1.5 (H6 1.5) | log10 difference in the concentrations of Cs-derivatives and unmodified Cs required to achieve 50% inhibition in ELISA, McAb B11 1.4 (B11 1.4) | log10 difference in the concentrations of Cs-derivatives and unmodified Cs required to achieve 50% inhibition in ELISA, McAb C4 2.2 (C4 2.2)
C/C=C/C[C@@H](C)[C@@H](O)[C@H]1C(=O)N[C@@H](CC)C(=O)N(C)CC(=O)N(C)[C@@H](CC(C)C)C(=O)N[C@@H](C(C)C)C(=O)N(C)[C@@H](CC(C)C)C(=O)N[C@@H](C)C(=O)N[C@H](CO)C(=O)N(C)[C@@H](CC(C)C)C(=O)N(C)[C@@H](CC(C)C)C(=O)N(C)[C@@H](C(C)C)C(=O)N1C [D-Ala^8 D-Ser] | 1.3 log10 | 0.0 log10 | < 0.0 log10 | 0.1 log10 | 0.3 log10
C/C=C/C[C@@H](C)[C@@H](O)[C@H]1C(=O)N[C@@H](CC)C(=O)N(C)CC(=O)N(C)[C@@H](CC(C)C)C(=O)N[C@@H](C(C)C)C(=O)N(C)[C@@H](CC(C)C)C(=O)N[C@@H](C)C(=O)N[C@H]([C@H](C)O)C(=O)N(C)[C@@H](CC(C)C)C(=O)N(C)[C@@H](CC(C)C)C(=O)N(C)[C@@H](C(C)C)C(=O)N1C [D-Ala^8 D-Thr] | > 2.0 log10 | 0.0 log10 | < 0.0 log10 | 0.4 log10 | 1.2 log10
C/C=C/C[C@@H](C)[C@@H](O)[C@H]1C(=O)N[C@@H](CC)C(=O)N(C)CC(=O)N(C)[C@@H](CC(C)C)C(=O)N[C@@H](C(C)C)C(=O)N(C)[C@@H](CC(C)C)C(=O)N[C@@H](C)C(=O)N[C@H](C)C(=O)N(C)[C@@H](CC(C)C)C(=O)N(C)[C@@H](C)C(=O)N(C)[C@@H](C(C)C)C(=O)N1C [MeAla^10 MeAla] | < 0.0 log10 | 0.4 log10 | 0.0 log10 | 0.1 log10 | 0.8 log10
C/C=C/C[C@@H](C)[C@@H](O)[C@H]1C(=O)N[C@@H](CC)C(=O)N(C)CC(=O)N(C)[C@@H](CC(C)C)C(=O)N[C@@H](C(C)C)C(=O)N(C)[C@@H](CC(C)C)C(=O)N[C@@H](C)C(=O)N[C@H](C)C(=O)N(C)[C@@H](CC(C)C)C(=O)N(C)[C@@H](Cc2ccccc2)C(=O)N(C)[C@@H](C(C)C)C(=O)N1C [MeAla^10 MePhe] | < 0.0 log10 | 0.5 log10 | 0.2 log10 | 1.6 log10 | 1.3 log10
C/C=C/C[C@@H](C)[C@@H](OC(C)=O)[C@H]1C(=O)N[C@@H](CC)C(=O)N(C)CC(=O)N(C)[C@@H](CC(C)C)C(=O)N[C@@H](C(C)C)C(=O)N(C)[C@@H](CC(C)C)C(=O)N[C@@H](C)C(=O)N[C@H](C)C(=O)N(C)[C@@H](CC(C)C)C(=O)N(C)[C@@H](CC(C)C)C(=O)N(C)[C@@H](C(C)C)C(=O)N1C [MeBint^1 3'-O-acetyl] | 0.1 log10 | 1.1 log10 | 0.6 log10 | 0.7 log10 | 0.2 log10
C/C=C/C[C@@H](C)C[C@H]1C(=O)N[C@@H](CC)C(=O)N(C)CC(=O)N(C)[C@@H](CC(C)C)C(=O)N[C@@H](C(C)C)C(=O)N(C)[C@@H](CC(C)C)C(=O)N[C@@H](C)C(=O)N[C@H](C)C(=O)N(C)[C@@H](CC(C)C)C(=O)N(C)[C@@H](CC(C)C)C(=O)N(C)[C@@H](C(C)C)C(=O)N1C [MeBint^1 3'desoxy] | 0.6 log10 | 1.2 log10 | 0.0 log10 | 0.4 log10 | < 0.0 log10
